{"source": "patent US20050118728A1", "about": "“Two-layer antibody capture system” (priority 2003, published 2005)", "tested_on": "phospholipase C-γl", "test": "Effect of tyrosine kinase inhibitor on ATP-dependent stimulation of immunocaptured phospholipase C-γl catalytic activity ([3H]PtdIns(4,5)P2 hydrolysis)", "format": "biochemical", "details": "50 μM genistein, 20 minutes, 35° C.; enzyme captured from rat hippocampal formation P2 extract; in the presence of CaMKII, PKC and PKA inhibitors", "experimental": "Anti-phospholipase C-γl antibodies were coated onto biotinylated anti-globulin immobilized on streptavidin at 200 ng of rabbit polyclonal antibody/100 μL per well. Each well was then incubated with 20 μg of rat hippocampal P2 extract overnight, and, subsequently, washed three times (5 minutes each) with room temperature PBS buffer. […]\nPhospholipase C-γl enzyme activity was quantified essentially as described in Weeber et al. (Neurobiology of Learning and Memory 76 (2001) 151-182). […] 300 μL of the supernatant containing the reaction product ([^3H]Ins(1,4,5)P3) was removed and quantified by liquid scintillation spectroscopy. Immune-complex-dependent activity was calculated by subtracting background [^3H]Ins(1,4,5)P3 (release present in normal rabbit IgG antibody control samples) from the activity measured in wells containing anti-phospholipase C-γl antibody. Data were calculated as nanomoles Ins(1,4,5)P3 product formed per minute, or per mg protein, or per minute per mg protein present in the extract from which the enzyme was affinity purified.\nWe sought to determine whether the technique that we used for the affinity capture of phospholipase C-γl allowed for the detection of tyrosine kinase(s) that associate with the phospholipase C-γl. […] The wells were then rinsed with 1.25× phospholipase C assay buffer and the catalytic activity of the isozyme was determined. […]", "note": "“Also recorded” adds a separate entry of the source.", "data": [{"smiles": "O=c1c(-c2ccc(O)cc2)coc2cc(O)cc(O)c12", "note": "[genistein]", "values": [{"measurement": "ATP-dependent stimulation of phospholipase C-γl catalytic activity", "result": "blocks; also recorded: completely inhibited"}]}]}
